Measurements published in patent publication US9511059B2, “Antiviral compounds” (priority 2013, dated 2016).

What was measured:
Assay in all cases: microbe, parasite or virus in culture
[1] = tested on: pseudotyped VSV G particles (VSVpp); assay type: cell-based; details: Vesicular stomatitis virus, 72 h, read-out: VSVpp (EC50, μM)
[2] = tested on: Pseudotyped HCV GT1a particles (HCVpp); assay type: cell-based, Hepatitis C virus GT1a H77 strain; details: Hepatitis C virus, 72 h, read-out: HCVpp GT-1a (EC50, μM)
[3] = tested on: Pseudotyped HCV GT1b particles (HCVpp); assay type: cell-based, Hepatitis C virus GT1b Con1 strain; details: Hepatitis C virus, 72 h, read-out: HCVpp GT-1b (EC50, μM)

SMILES | EC50 [1] [µM] | EC50 [2] [µM] | EC50 [3] [µM]
Nc1n[nH]c(Nc2cc(F)c(Sc3ccccc3)c(C(F)(F)F)c2)n1 [Compound 1, N^5-(3-Fluoro-4-phenylsulfanyl-5-trifluoromethylphenyl)-1H-[1,2,4]-triazole-3,5-diamine] | 13.2 | 0.31 | –
Nc1nc(Nc2ccc(Nc3ccccc3)c(Cl)c2)n[nH]1 [Compound 2, N*3*-(3-Chloro-4-phenylamino-phenyl)-1H-[1,2,4]triazole-3,5-diamine] | 86 | 2.44 | 0.393
Nc1nc(Nc2ccc(Oc3ccccc3)c(Cl)c2)n[nH]1 [Compound 3, N*3*-(3-Chloro-4-phenoxy-phenyl)-1H-[1,2,4]triazole-3,5-diamine] | 35.5 | 2.77 | 0.329
Nc1nc(Nc2cc(Cl)c(Sc3ccccc3)c(Cl)c2)n[nH]1 [Compound 4, N*3*-(3,5-Dichloro-4-phenylsulfanyl-phenyl)-1H-[1,2,4]triazole-3,5-diamine] | 3.3 | 0.076 | –
Nc1nc(Nc2cc(Cl)c([S+]([O-])c3ccccc3)c(Cl)c2)n[nH]1 (stereo not shown) [Compound 5, N*3*-(4-Benzenesulfinyl-3,5-dichloro-phenyl)-1H-[1,2,4]triazole-3,5-diamine] | 25.3 | 0.293 | –
Nc1nc(Nc2cc(Cl)c(S(=O)(=O)c3ccccc3)c(Cl)c2)n[nH]1 [Compound 6, N*3*-(4-Benzenesulfonyl-3,5-dichloro-phenyl)-1H-[1,2,4]triazole-3,5-diamine] | 34 | 0.139 | –
Nc1nc(Nc2cc(Cl)c(Sc3ccc(C(F)(F)F)cc3)c(Cl)c2)n[nH]1 [Compound 7, N3-(3,5-dichloro-4-(4-(trifluoromethyl)phenylthio)phenyl)-1H-1,2,4-triazole-3,5-diamine] | 100 | – | 0.009
Nc1nc(Nc2cc(Cl)c([S+]([O-])c3ccc(C(F)(F)F)cc3)c(Cl)c2)n[nH]1 (stereo not shown) [Compound 8, N3-(3,5-dichloro-4-(4-(trifluoromethyl)phenylsulfinyl)phenyl)-1H-1,2,4-triazole-3,5-diamine] | 10 | 0.114 | 0.079
Nc1nc(Nc2cc(Cl)c(Sc3cccc(C(F)(F)F)c3)c(Cl)c2)n[nH]1 [Compound 9, N3-(3,5-dichloro-4-(3-(trifluoromethyl)phenylthio)phenyl)-1H-1,2,4-triazole-3,5-diamine] | 3 | 0.15 | –
Nc1nc(Nc2cc(Cl)c(Sc3ccccc3C(F)(F)F)c(Cl)c2)n[nH]1 [Compound 10, N*3*-[3,5-Dichloro-4-(2-trifluoromethyl-phenylsulfanyl)-phenyl]-1H-[1,2,4]triazole-3,5-diamine] | 7.7 | 0.263 | –
Nc1nc(Nc2cc(Cl)c([S+]([O-])c3cccc(C(F)(F)F)c3)c(Cl)c2)n[nH]1 (stereo not shown) [Compound 11, N^3-[3,5-Dichloro-4-(3-trifluoromethyl-benzenesulfinyl)-phenyl]-1H-[1,2,4]triazole-3,5-diamine] | 10 | 0.61 | –
N#Cc1ccc(Sc2c(Cl)cc(Nc3n[nH]c(N)n3)cc2Cl)cc1 [Compound 12, 4-[4-(5-Amino-1H-[1,2,4]triazol-3-ylamino)-2,6-dichloro-phenylsulfanyl]-benzonitrile] | 3.4 | 0.077 | –
N#Cc1ccc([S+]([O-])c2c(Cl)cc(Nc3n[nH]c(N)n3)cc2Cl)cc1 (stereo not shown) [Compound 13, 4-[4-(5-Amino-1H-[1,2,4]triazol-3-ylamino)-2,6-dichloro-benzenesulfinyl]-benzonitrile] | 10 | 0.674 | –
N#Cc1ccc(S(=O)(=O)c2c(Cl)cc(Nc3n[nH]c(N)n3)cc2Cl)cc1 [Compound 14, 4-[4-(5-Amino-1H-[1,2,4]triazol-3-ylamino)-2,6-dichloro-benzenesulfonyl]-benzonitrile] | 10 | 0.366 | –
COC(=O)c1ccc(Sc2c(Cl)cc(Nc3n[nH]c(N)n3)cc2C(F)(F)F)cc1 [Compound 15, 4-[4-(5-Amino-1H-[1,2,4]triazol-3-ylamino)-2-chloro-6-trifluoromethyl-phenylsulfanyl]-benzoic acid methyl ester] | 49.8 | 0.133 | –
COc1ccc(Sc2c(Cl)cc(Nc3n[nH]c(N)n3)cc2Cl)cc1 [Compound 16, N*3*-[3,5-Dichloro-4-(4-methoxy-phenylsulfanyl)-phenyl]-1H-[1,2,4]triazole-3,5-diamine] | 40.2 | 1.02 | –
COc1ccc(Sc2c(Cl)cc(Nc3n[nH]c(N)n3)cc2C(F)(F)F)cc1 [Compound 17, N*3*-[3-Chloro-4-(4-methoxy-phenylsulfanyl)-5-trifluoromethyl-phenyl]-1H-[1,2,4]triazole-3,5-diamine] | 34.9 | 1.04 | –
COc1ccc(S(=O)(=O)c2c(Cl)cc(Nc3n[nH]c(N)n3)cc2Cl)cc1 [Compound 18, N*3*-[3,5-Dichloro-4-(4-methoxy-benzenesulfonyl)-phenyl]-1H-[1,2,4]triazole-3,5-diamine] | 0.1 | 0.126 | –
CS(=O)(=O)c1ccc(Oc2c(Cl)cc(Nc3n[nH]c(N)n3)cc2Cl)cc1 [Compound 19, N*3*-[3,5-Dichloro-4-(4-methanesulfonyl-phenoxy)-phenyl]-1H-[1,2,4]triazole-3,5-diamine] | 20.2 | 0.019 | 0.008
CS(=O)(=O)c1ccc(Oc2c(Cl)cc(Nc3n[nH]c(N)n3)cc2C(F)(F)F)cc1 [Compound 20, N*3*-[3-Chloro-4-(4-methanesulfonyl-phenoxy)-5-trifluoromethyl-phenyl]-1H-[1,2,4]triazole-3,5-diamine] | 10 | 0.232 | –
Nc1nc(Nc2cc(Cl)cc(OCc3ccccc3)c2)n[nH]1 [Compound 21, N*5*-(3-Benzyloxy-5-chloro-phenyl)-1H-[1,2,4]triazole-3,5-diamine] | 39.2 | 1.67 | –
Nc1nc(Nc2ccc(Sc3ccccc3)c(Cl)c2)n[nH]1 [Compound 22, N3-(3-chloro-4-(phenylthio)phenyl)-1H-1,2,4-triazole-3,5-diamine] | 14.3 | 1.65 | 0.229
Nc1nc(Nc2ccc(S(=O)(=O)c3ccccc3)c(Cl)c2)n[nH]1 [Compound 23, N3-(3-chloro-4-(phenylsulfonyl)phenyl)-1H-1,2,4-triazole-3,5-diamine] | 40.1 | 4.62 | 0.517
CN(c1ccc(Sc2ccccc2)c(Cl)c1)c1n[nH]c(N)n1 [Compound 24, N3-(3-chloro-4-(phenylthio)phenyl)-N3-methyl-1H-1,2,4-triazole-3,5-diamine] | 100 | – | 42.1
Nc1nc(Nc2cc(Cl)cc(Oc3ccccc3)c2)n[nH]1 [Compound 25, N*3*-(3-Chloro-5-phenoxy-phenyl)-1H-[1,2,4]triazole-3,5-diamine] | 100 | – | 1.9
Nc1nc(Nc2cc(Cl)c(Oc3ccccn3)c(Cl)c2)n[nH]1 [Compound 26, N*3*-[3,5-Dichloro-4-(pyridin-2-yloxy)-phenyl]-1H-[1,2,4]triazole-3,5-diamine] | 43.5 | 1.88 | –
